In the Kinase Knowledgebase extract (Sharma et al. 2016):

Columns and labels:
PIK3CA (human) = PIK3CA (human) (UniProt P42336); assay: Assessment of PIK3CA Kinase Activity
PIK3CG (human) = PIK3CG (human) (UniProt P48736); assay: Assessment of PIK3CG Kinase Activity
PIK3CG (human), sequence (P48736 whole entry, looked up): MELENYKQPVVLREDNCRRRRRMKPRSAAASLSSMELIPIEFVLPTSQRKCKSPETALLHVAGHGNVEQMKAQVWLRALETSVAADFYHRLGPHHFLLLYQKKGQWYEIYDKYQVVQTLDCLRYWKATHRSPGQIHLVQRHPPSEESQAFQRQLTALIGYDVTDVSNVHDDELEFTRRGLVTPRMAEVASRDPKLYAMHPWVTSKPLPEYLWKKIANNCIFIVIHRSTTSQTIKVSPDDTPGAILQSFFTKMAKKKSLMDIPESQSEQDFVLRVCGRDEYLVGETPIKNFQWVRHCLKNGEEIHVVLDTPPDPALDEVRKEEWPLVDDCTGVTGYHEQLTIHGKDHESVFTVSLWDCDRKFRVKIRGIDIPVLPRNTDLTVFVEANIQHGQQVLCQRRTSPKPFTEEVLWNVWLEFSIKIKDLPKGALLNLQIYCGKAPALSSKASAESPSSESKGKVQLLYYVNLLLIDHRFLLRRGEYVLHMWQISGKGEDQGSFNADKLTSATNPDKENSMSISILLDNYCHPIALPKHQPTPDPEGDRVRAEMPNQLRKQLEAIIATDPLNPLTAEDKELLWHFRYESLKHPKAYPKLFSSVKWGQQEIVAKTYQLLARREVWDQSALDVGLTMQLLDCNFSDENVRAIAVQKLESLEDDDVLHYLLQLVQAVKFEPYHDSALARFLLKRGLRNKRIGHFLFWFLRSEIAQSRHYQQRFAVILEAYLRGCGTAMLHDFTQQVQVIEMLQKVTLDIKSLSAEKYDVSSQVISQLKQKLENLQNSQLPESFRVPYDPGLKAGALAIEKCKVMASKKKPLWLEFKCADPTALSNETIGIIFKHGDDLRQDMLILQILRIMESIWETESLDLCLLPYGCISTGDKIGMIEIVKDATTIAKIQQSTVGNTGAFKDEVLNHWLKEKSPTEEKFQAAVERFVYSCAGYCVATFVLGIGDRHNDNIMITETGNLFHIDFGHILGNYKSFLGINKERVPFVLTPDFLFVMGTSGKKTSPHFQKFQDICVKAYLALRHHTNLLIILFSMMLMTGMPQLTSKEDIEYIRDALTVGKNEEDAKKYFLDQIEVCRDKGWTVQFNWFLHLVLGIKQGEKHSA

PIK3CA (human), sequence (P42336 whole entry, looked up): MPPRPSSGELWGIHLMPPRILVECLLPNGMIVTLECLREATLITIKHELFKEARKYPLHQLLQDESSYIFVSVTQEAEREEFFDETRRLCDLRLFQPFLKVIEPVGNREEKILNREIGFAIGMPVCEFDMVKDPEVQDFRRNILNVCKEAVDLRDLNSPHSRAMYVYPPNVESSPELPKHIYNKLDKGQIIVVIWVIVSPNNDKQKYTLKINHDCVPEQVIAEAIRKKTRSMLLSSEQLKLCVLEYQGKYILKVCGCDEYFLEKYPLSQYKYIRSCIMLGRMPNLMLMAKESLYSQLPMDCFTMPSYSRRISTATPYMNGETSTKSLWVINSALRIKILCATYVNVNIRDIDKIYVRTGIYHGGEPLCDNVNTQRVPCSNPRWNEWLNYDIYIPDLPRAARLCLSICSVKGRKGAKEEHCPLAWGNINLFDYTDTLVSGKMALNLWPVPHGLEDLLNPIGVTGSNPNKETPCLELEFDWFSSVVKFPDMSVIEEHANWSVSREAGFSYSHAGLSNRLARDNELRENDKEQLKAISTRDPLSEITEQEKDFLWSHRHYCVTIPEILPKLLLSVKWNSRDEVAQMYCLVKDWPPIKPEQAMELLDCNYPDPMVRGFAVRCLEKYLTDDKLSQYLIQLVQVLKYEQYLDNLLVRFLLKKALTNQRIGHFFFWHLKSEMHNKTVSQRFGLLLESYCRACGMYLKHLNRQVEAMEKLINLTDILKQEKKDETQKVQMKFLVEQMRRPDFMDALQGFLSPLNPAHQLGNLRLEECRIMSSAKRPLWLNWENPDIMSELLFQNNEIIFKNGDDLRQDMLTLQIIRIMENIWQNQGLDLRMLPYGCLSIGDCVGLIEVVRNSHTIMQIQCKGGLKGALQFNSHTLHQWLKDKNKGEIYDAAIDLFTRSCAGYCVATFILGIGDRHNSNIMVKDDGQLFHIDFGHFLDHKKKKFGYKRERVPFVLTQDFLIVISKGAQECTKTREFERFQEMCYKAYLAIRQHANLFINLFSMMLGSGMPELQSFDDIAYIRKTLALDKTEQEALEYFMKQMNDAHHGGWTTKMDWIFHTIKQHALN

Row | SMILES | IC50 (PIK3CA (human)) [nM] | IC50 (PIK3CG (human)) [nM]
1 | CNC(=O)Nc1ccc(-c2nc3c(c(N4CC5CCC(C4)O5)n2)CCN(C)C3)cc1 | 3340 | > 10000
2 | CN(C)C1CCN(C(=O)c2ccc(NC(=O)Nc3ccc(-c4nc5c(c(N6CC7CCC(C6)O7)n4)CCN(S(C)(=O)=O)C5)cc3)cc2)CC1 | 2690 | > 10000
3 | CN(C)C1CCN(C(=O)c2ccc(NC(=O)Nc3ccc(-c4nc5c(c(N6C7CCC6COC7)n4)CCN(S(C)(=O)=O)C5)cc3)cc2)CC1 | 1330 | > 10000
4 | O=C(Nc1ccc(-c2nc3c(c(N4C5CCC4COC5)n2)CCNC3)cc1)Nc1cccnc1 | 1790 | > 10000
5 | CNC(=O)Nc1ccc(-c2nc3c(c(N4C5CCC4COC5)n2)CCN(S(C)(=O)=O)C3)cc1 | 582 | > 10000
6 | CNC(=O)Nc1ccc(-c2nc3c(c(N4CC5CCC(C4)O5)n2)CCNC3)cc1 | 2720 | > 10000
7 | CN1CCc2c(nc(-c3ccc(NC(=O)Nc4cccnc4)cc3)nc2N2C3CCC2COC3)C1 | 1110 | 12000

Compounds with a lower IC50 (PIK3CA (human)), results first:

Row | IC50 (PIK3CA (human)) [nM] | IC50 (PIK3CG (human)) [nM] | SMILES
8 | 45 | 782 | CS(=O)(=O)N1Cc2nc(-c3ccc(NC(=O)Nc4cccnc4)cc3)nc(N3CCOCC3)c2C1
9 | 288 | 7290 | CNC(=O)Nc1ccc(-c2nc3c(c(N4C5CCC4COC5)n2)CNC3)cc1
10 | 110 | > 10000 | CN(C)C1CCN(C(=O)c2ccc(NC(=O)Nc3ccc(-c4nc5c(c(N6CC7CCC(C6)O7)n4)CNC5)cc3)cc2)CC1
11 | 9 | 74 | CN(C)C1CCN(C(=O)c2ccc(NC(=O)Nc3ccc(-c4nc5c(c(N6CCOCC6)n4)CNC5)cc3)cc2)CC1
12 | 66 | 715 | O=C(Nc1ccc(-c2nc3c(c(N4CCOCC4)n2)CCNC3)cc1)Nc1cccnc1
13 | 1 | 23 | CNC(=O)Nc1ccc(-c2nc3c(c(N4CCOCC4)n2)CN(S(C)(=O)=O)C3)cc1
